Measured values reported in patent US20230099811A1, “COMPOSITION OF HYALURONIC ACID AND USE ALONE AND IN COMBINATION WITH RETINOIDS TO IMPROVE SKIN” (RoC OPCO LLC, priority 2021, published 2023).

Key:
[1] = test system: cultured human epidermal/dermal skin tissues (EpiDerm-FT); experiment: Hyaluronic acid levels by HA ELISA in culture medium and tissue lysates of EpiDerm-FT; type: cell-based; settings: vs vehicle-treated tissues
Source text: (§1) The purpose of this study was to evaluate the hyaluronic acid (HA) expression change activity of RoC® HA Serum Capsules (i.e. Example 2.0), RoC® Retinol Serum Capsules (i.e. Example 1.0), commercially available HA Serum (1.5 wt. % HA) and commercially available Retinol Serum (0.3 wt. % retinol) compared to 0.15% Retinol-treated tissues in cultured human epidermal/dermal skin tissues (EpiDerm-FT™). HA levels from culture medium, tissue lysates, HA histology and gene expression related to dermal anti-aging effects were quantified using qPCR method after 24- and 72-hours incubation with test materials.

[2] = test system: Elastin (ELN) gene; experiment: Gene expression change by qPCR in EpiDerm-FT: ELN; type: cell-based, human; settings: vs vehicle-treated tissues, GAPDH housekeeping
Source text: as §1

[3] = test system: Hyaluronic acid synthase-2 (HAS2) gene; experiment: Gene expression change by qPCR in EpiDerm-FT: HAS2; type: cell-based, human; settings: vs vehicle-treated tissues, GAPDH housekeeping
Source text: as §1

[4] = test system: Fibronectin (FN1) gene; experiment: Gene expression change by qPCR in EpiDerm-FT: FN1; type: cell-based, human; settings: vs vehicle-treated tissues, GAPDH housekeeping
Source text: as §1

[5] = test system: Collagen type-IV (COL4A1) gene; experiment: Gene expression change by qPCR in EpiDerm-FT: COL4A1; type: cell-based, human; settings: vs vehicle-treated tissues, GAPDH housekeeping
Source text: as §1

[6] = test system: Hyaluronic acid synthase-1 (HAS1) gene; experiment: Gene expression change by qPCR in EpiDerm-FT: HAS1; type: cell-based, human; settings: vs vehicle-treated tissues, GAPDH housekeeping
Source text: as §1

[7] = test system: Collagen type-I (COL1A1) gene; experiment: Gene expression change by qPCR in EpiDerm-FT: COL1A1; type: cell-based, human; settings: vs vehicle-treated tissues, GAPDH housekeeping
Source text: as §1

[8] = test system: Collagen type-III (COL3A1) gene; experiment: Gene expression change by qPCR in EpiDerm-FT: COL3A1; type: cell-based, human; settings: vs vehicle-treated tissues, GAPDH housekeeping
Source text: as §1

[9] = test system: cultured human epidermal/dermal skin tissues (EpiDerm-FT); experiment: Alcian Blue histology of dermal layer, image analysis, EpiDerm-FT; type: cell-based; settings: vs vehicle-only treated tissues
Source text: as §1
After incubations, tissues were fixed and subjected to the normal steps of tissue preparation for histological analysis: dehydration, paraffin embedding, sectioning and staining with Alcian Blue. Histological activity was analyzed using image analysis including blue-color deconvolution and luminosity per section area in dermal layer. The percent change effect of each treatment was calculated comparing the vehicle-only treated tissues group.

[10] = 24 hr, n = 3, listed as 0.15% Retinol formulated in DMSO

CC1=C(/C=C/C(C)=C/C=C/C(C)=C/CO)C(C)(C)CCC1 [0.15% Retinol in DMSO, Retinol]
Hyaluronic Acid (HA) levels change, Culture medium ([1]; 24 hr, n = 3): +34% | Hyaluronic Acid (HA) levels change, Tissue lysates ([1]; 24 hr, n = 3): +52% | Hyaluronic Acid (HA) levels change, Culture medium [1, 10]: 34% | Hyaluronic Acid (HA) levels change, Tissue lysates [1, 10]: 52% | Hyaluronic Acid (HA) levels change, Culture medium ([1]; 72 hr, n = 3): +25% | Hyaluronic Acid (HA) levels change, Tissue lysates ([1]; 72 hr, n = 3): +49% | Gene Expression change, ELN ([2]; 24 hr): −21% | Gene Expression change, ELN ([2]; 72 hr): +25% | Gene Expression change, HAS2 ([3]; 24 hr): −11% | Gene Expression change, HAS2 ([3]; 72 hr): −18% | Gene Expression change, FN1 ([4]; 24 hr): −16% | Gene Expression change, FN1 ([4]; 72 hr): +45% | Gene Expression change, FN1 ([4]; 72 hr, listed as 0.15% Retinol formulated in DMSO): 45% | Gene Expression change, COL4A1 ([5]; 24 hr): −30% | Gene Expression change, COL4A1 ([5]; 72 hr): +9% | Gene Expression change, HAS1 ([6]; 24 hr): −52% | Gene Expression change, HAS1 ([6]; 72 hr): −29% | Gene Expression change, COL1A1 ([7]; 24 hr): −22% | Gene Expression change, COL1A1 ([7]; 72 hr): +18% | Gene Expression change, COL3A1 ([8]; 24 hr): −22% | Gene Expression change, COL3A1 ([8]; 72 hr): +8% | Histology, Alcian Blue in Dermis staining change ([9]; 24 hr): +81% | Histology, Alcian Blue in Dermis staining change ([9]; 72 hr): −9%
